Each compound was assayed on PBMCs infected with VSV-G pseudotyped HIV virus (VSV-G/pNLG1-P2A-ΔEnv) (assay: cells). Conditions: Homo sapiens, PBMC, read-out: TACK EC50.
Format: cell-based, human

SMILES	EC50
CC(F)(F)[C@@]1(C#CC2CC2)NC(=O)Nc2cc(Cn3cc(F)c(CO)n3)c(F)cc21 [Example 67, (S)-4-(cyclopropylethynyl)-4-(1,1-difluoroethyl)-6-fluoro-7-((4-fluoro-3-(hydroxymethyl)-1H-pyrazol-1-yl)methyl)-3,4-dihydroquinazolin-2(1H)-one]	0.0261 µM
Cc1cn(Cc2cc3c(cc2F)[C@@](C#CC2CC2)(C(C)(F)F)NC(=O)N3)nc1CO [Example 68, (S)-4-(cyclopropylethynyl)-4-(1,1-difluoroethyl)-6-fluoro-7-((3-(hydroxymethyl)-4-methyl-1H-pyrazol-1-yl)methyl)-3,4-dihydroquinazolin-2(1H)-one]	0.031 µM
CC(F)(F)[C@@]1(C#CC2CC2)NC(=O)Nc2cc(Cn3nc(CO)cc3Cl)c(F)cc21 [Example 69, (S)-7-((5-chloro-3-(hydroxymethyl)-1H-pyrazol-1-yl)methyl)-4-(cyclopropylethynyl)-4-(1,1-difluoroethyl)-6-fluoro-3,4-dihydroquinazolin-2(1H)-one]	0.0298 µM
CC(F)(F)[C@@]1(C#CC2CC2)NC(=O)Nc2cc(Cn3cc(CCO)cn3)c(F)cc21 [Example 70, (S)-4-(cyclopropylethynyl)-4-(1,1-difluoroethyl)-6-fluoro-7-((4-(2-hydroxyethyl)-1H-pyrazol-1-yl)methyl)-3,4-dihydroquinazolin-2(1H)-one]	0.0507 µM
CC(F)(F)[C@@]1(C#CC2CC2)NC(=O)Nc2cc(Cn3cc(Cl)c(CO)n3)c(F)cc21 [Example 71, (S)-7-((4-chloro-3-(hydroxymethyl)-1H-pyrazol-1-yl)methyl)-4-(cyclopropylethynyl)-4-(1,1-difluoroethyl)-6-fluoro-3,4-dihydroquinazolin-2(1H)-one]	0.03 µM
COc1nccn1Cc1cc2c(cc1F)[C@@](C#CC1CC1)(C(C)(F)F)NC(=O)N2 [Example 74, (S)-4-(cyclopropylethynyl)-4-(1,1-difluoroethyl)-6-fluoro-7-((2-methoxy-1H-imidazol-1-yl)methyl)-3,4-dihydroquinazolin-2(1H)-one]	0.0381 µM
CNc1ccn(Cc2cc3c(cc2F)[C@@](C#CC2CC2)(C(C)(F)F)NC(=O)N3)n1 [Example 75, (S)-4-(cyclopropylethynyl)-4-(1,1-difluoroethyl)-6-fluoro-7-((3-(methylamino)-1H-pyrazol-1-yl)methyl)-3,4-dihydroquinazolin-2(1H)-one]	0.0369 µM
CN(C)c1ccn(Cc2cc3c(cc2F)[C@@](C#CC2CC2)(C(C)(F)F)NC(=O)N3)n1 [Example 76, (S)-4-(cyclopropylethynyl)-4-(1,1-difluoroethyl)-7-((3-(dimethylamino)-1H-pyrazol-1-yl)methyl)-6-fluoro-3,4-dihydroquinazolin-2(1H)-one]	0.0604 µM
CC(F)(F)[C@@]1(C#CC2CC2)NC(=O)Nc2cc(CNC(=O)c3[nH]cnc3Cl)c(F)cc21 [Example 77, (S)-4-chloro-N-((4-(cyclopropylethynyl)-4-(1,1-difluoroethyl)-6-fluoro-2-oxo-1,2,3,4-tetrahydroquinazolin-7-yl)methyl)-1H-imidazole-5-carboxamide]	0.0087 µM
O=C1Nc2cc(CNC(=O)c3[nH]cnc3Cl)c(F)cc2[C@@](C#CC2CC2)(C(F)(F)F)N1 [Example 78, (S)-4-chloro-N-((4-(cyclopropylethynyl)-6-fluoro-2-oxo-4-(trifluoromethyl)-1,2,3,4-tetrahydroquinazolin-7-yl)methyl)-1H-imidazole-5-carboxamide]	0.0151 µM
CC(F)(F)[C@@]1(C#CC2CC2)NC(=O)Nc2cc(CNC(=O)c3ncc[nH]3)c(F)cc21 [Example 79, (S)—N-((4-(cyclopropylethynyl)-4-(1,1-difluoroethyl)-6-fluoro-2-oxo-1,2,3,4-tetrahydroquinazolin-7-yl)methyl)-1H-imidazole-2-carboxamide]	0.0092 µM
O=C1Nc2cc(CNC(=O)c3ncc[nH]3)c(F)cc2[C@@](C#CC2CC2)(C(F)(F)F)N1 [Example 80, (S)-N-((4-(cyclopropylethynyl)-6-fluoro-2-oxo-4-(trifluoromethyl)-1,2,3,4-tetrahydroquinazolin-7-yl)methyl)-1H-imidazole-2-carboxamide]	0.0098 µM
CN(Cc1cc2c(cc1F)[C@@](C#CC1CC1)(C(C)(F)F)NC(=O)N2)C(=O)c1ncc[nH]1 [Example 81, (S)-N-((4-(cyclopropylethynyl)-4-(1,1-difluoroethyl)-6-fluoro-2-oxo-1,2,3,4-tetrahydroquinazolin-7-yl)methyl)-N-methyl-1H-imidazole-2-carboxamide]	0.0121 µM
Cn1ccnc1C(=O)NCc1cc2c(cc1F)[C@@](C#CC1CC1)(C(C)(F)F)NC(=O)N2 [Example 82, (S)-N-((4-(cyclopropylethynyl)-4-(1,1-difluoroethyl)-6-fluoro-2-oxo-1,2,3,4-tetrahydroquinazolin-7-yl)methyl)-1-methyl-1H-imidazole-2-carboxamide]	0.153 µM
O=C1Nc2cc(CNC(=O)c3ncco3)c(F)cc2[C@@](C#CC2CC2)(C(F)(F)F)N1 [Example 83, (S)-N-((4-(cyclopropylethynyl)-6-fluoro-2-oxo-4-(trifluoromethyl)-1,2,3,4-tetrahydroquinazolin-7-yl)methyl)oxazole-2-carboxamide]	0.158 µM
Cc1nc(N)sc1C(=O)NCc1cc2c(cc1F)[C@@](C#CC1CC1)(C(F)(F)F)NC(=O)N2 [Example 84, (S)-2-amino-N-((4-(cyclopropylethynyl)-6-fluoro-2-oxo-4-(trifluoromethyl)-1,2,3,4-tetrahydroquinazolin-7-yl)methyl)-4-methylthiazole-5-carboxamide]	0.273 µM
O=C1Nc2cc(CNC(=O)c3nnc[nH]3)c(F)cc2[C@@](C#CC2CC2)(C(F)(F)F)N1 [Example 85, (S)-N-((4-(cyclopropylethynyl)-6-fluoro-2-oxo-4-(trifluoromethyl)-1,2,3,4-tetrahydroquinazolin-7-yl)methyl)-4H-1,2,4-triazole-3-carboxamide]	0.28 µM
Cc1cc[nH]c1C(=O)NCc1cc2c(cc1F)[C@@](C#CC1CC1)(C(F)(F)F)NC(=O)N2 [Example 86, (S)-N-((4-(cyclopropylethynyl)-6-fluoro-2-oxo-4-(trifluoromethyl)-1,2,3,4-tetrahydroquinazolin-7-yl)methyl)-3-methyl-1H-pyrrole-2-carboxamide]	0.0157 µM
N#Cc1c[nH]c(C(=O)NCc2cc3c(cc2F)[C@@](C#CC2CC2)(C(F)(F)F)NC(=O)N3)c1 [Example 88, (S)-4-cyano-N-((4-(cyclopropylethynyl)-6-fluoro-2-oxo-4-(trifluoromethyl)-1,2,3,4-tetrahydroquinazolin-7-yl)methyl)-1H-pyrrole-2-carboxamide]	0.0254 µM
O=C1Nc2cc(CNC(=O)c3nccs3)c(F)cc2[C@@](C#CC2CC2)(C(F)(F)F)N1 [Example 89, (S)-N-((4-(cyclopropylethynyl)-6-fluoro-2-oxo-4-(trifluoromethyl)-1,2,3,4-tetrahydroquinazolin-7-yl)methyl)thiazole-2-carboxamide]	0.095 µM
CC(F)(F)[C@@]1(C#CC2CC2)NC(=O)Nc2cc(Cn3cc4ccccc4n3)c(F)cc21 [Example 90, (S)-7-((2H-indazol-2-yl)methyl)-4-(cyclopropylethynyl)-4-(1,1-difluoroethyl)-6-fluoro-3,4-dihydroquinazolin-2(1H)-one]	0.0094 µM
CC(F)(F)[C@@]1(C#CC2CC2)NC(=O)Nc2cc(Cn3ncc4ccccc43)c(F)cc21 [Example 91, (S)-7-((1H-indazol-1-yl)methyl)-4-(cyclopropylethynyl)-4-(1,1-difluoroethyl)-6-fluoro-3,4-dihydroquinazolin-2(1H)-one]	0.0273 µM
CC(F)(F)[C@@]1(C#CC2CC2)NC(=O)Nc2cc(Cn3nnc4ccccc43)c(F)cc21 [Example 92, (S)-7-((1H-benzo[d][1,2,3]triazol-1-yl)methyl)-4-(cyclopropylethynyl)-4-(1,1-difluoroethyl)-6-fluoro-3,4-dihydroquinazolin-2(1H)-one]	0.0106 µM
Cc1nn(Cc2cc3c(cc2F)[C@@](C#CC2CC2)(C(C)(F)F)NC(=O)N3)c2ccccc12 [Example 93, (S)-4-(cyclopropylethynyl)-4-(1,1-difluoroethyl)-6-fluoro-7-((3-methyl-1H-indazol-1-yl)methyl)-3,4-dihydroquinazolin-2(1H)-one]	0.0285 µM
CC(F)(F)[C@@]1(C#CC2CC2)NC(=O)Nc2cc(Cn3cnc4ccccc43)c(F)cc21 [Example 94, (S)-7-((1H-benzo[d]imidazol-1-yl)methyl)-4-(cyclopropylethynyl)-4-(1,1-difluoroethyl)-6-fluoro-3,4-dihydroquinazolin-2(1H)-one]	0.0442 µM
COc1nn(Cc2cc3c(cc2F)[C@@](C#CC2CC2)(C(C)(F)F)NC(=O)N3)cc1Cl [Example 95, (S)-7-((4-chloro-3-methoxy-1H-pyrazol-1-yl)methyl)-4-(cyclopropylethynyl)-4-(1,1-difluoroethyl)-6-fluoro-3,4-dihydroquinazolin-2(1H)-one]	0.0241 µM
O=C1Nc2cc(CN3Cc4ccccc4C3=O)c(F)cc2[C@@](C#CC2CC2)(C(F)(F)F)N1 [Example 96, (S)-4-(cyclopropylethynyl)-6-fluoro-7-((1-oxoisoindolin-2-yl)methyl)-4-(trifluoromethyl)-3,4-dihydroquinazolin-2(1H)-one]	0.0451 µM
COc1ccc(-c2ccn(Cc3cc4c(cc3F)[C@@](C#CC3CC3)(C(C)(F)F)NC(=O)N4)n2)cc1 [Example 97, (S)-4-(cyclopropylethynyl)-4-(1,1-difluoroethyl)-6-fluoro-7-((3-(4-methoxyphenyl)-1H-pyrazol-1-yl)methyl)-3,4-dihydroquinazolin-2(1H)-one]	0.0453 µM
O=C1Nc2cc(Cn3ccc4c3CCNC4=O)c(F)cc2[C@@](C#CC2CC2)(C(F)(F)F)N1 [Example 98, (S)-4-(cyclopropylethynyl)-6-fluoro-7-((4-oxo-4,5,6,7-tetrahydro-1H-pyrrolo[3,2-c]pyridin-1-yl)methyl)-4-(trifluoromethyl)-3,4-dihydroquinazolin-2(1H)-one]	0.0654 µM

From patent US20250026759A1 (Merck Sharp & Dohme LLC, priority 2023, published 2025)
